Assay results taken from US11390661B2, “HCMV entry inhibitors” (priority 2016, dated 2022).

How the values were obtained:
HCMV = assay: Neutralization of cell-free HCMV particles / inhibition of HCMV entry in cell culture; type: cell-based, Human cytomegalovirus
Experimental: Infectious cell free HCMV preparations (corresponding to a multiplicity of infection of 1) are pre-incubated with the substance (at variable concentrations) for 2 h at 37° C. The pre-incubated mixture of HCMV and substance is added to cell cultures of choice, including at least a culture of human primary fibroblasts and a culture of human endothelial cells. Cells are incubated with the mixture for 2 h at 37° C. The mixture of HCMV and substance is then replaced with the appropriate cell culture medium and cells are further incubated for at least 16 h at 37° C. HCMV infection of the cells is detected by immunostaining of HCMV immediate early antigens (pUL122/123) with indirect immunofluorescence. The ratio of HCMV-IE antigen-positive cells per total cells is calculated as a readout for the efficiency of viral entry.

HCMV strain TB40/E = assay: Inhibition of infection of fibroblasts (HFFs), IE antigen immunofluorescence; type: cell-based, Human cytomegalovirus
Experimental: For testing the inhibitory effect of antivirals or fusion proteins on HCMV, the respective inhibitors were diluted in MEM and mixed with infectious supernatants, the mixtures were incubated for 2 h at 37° C. before addition to the cells. For fibroblast infection the virus-inhibitor mixture was incubated on the cells for about 24 h. If endothelial cells were included in the experiment, all cells were supplied with their respective maintenance media after 2 h, and further incubated for 22 h.
Infection efficiencies were determined by immunofluorescence staining for viral proteins. For fixation and permeabilization the cells were incubated with 80% acetone for 5 min. For HCMV infected cells the immediate early proteins pUL122/123 were detected with a mouse monoclonal (clone E13, Argene) and visualized using a Cy3 conjugated goat anti-mouse secondary antibody (Jackson Immuno Research). HSV infected cultures were stained 6 h post infection for ICP0 using a mouse monoclonal (clone 11060, Santa Cruz) and goat anti-mouse AF488 (life technologies). DAPI was used to locate nuclei. Infection rates were determined by counting the number of cell nuclei positive for the respective viral protein, as well as the total number of nuclei per image. For each condition three images were evaluated.
To test this, the inventors pre-incubated cell free preparations of HCMV strain TB40/E with variable concentrations of soluble PDGFR-alpha-Fc chimeras for 2 h before adding them to HFFs and HECs. After 2 h the virus was removed and replaced with the appropriate cell culture medium for an overnight incubation. Cultures were then fixed, and the fraction of infected cells was determined by indirect immunofluorescence staining of viral IE antigens.
Cell free preparations of TB40/E were pre-incubated with increasing concentrations of the various Fc chimeras for 2 h. HFFs were then incubated with the mixtures for 2 h followed by a medium exchange and an overnight incubation.

[1] = system: TB40-BACKL7-UL32EGFP-UL100mCherry; assay: Adsorption and penetration of dual fluorescent HCMV particles on HFFs; type: cell-based, Human cytomegalovirus; conditions: 100 ng/ml
Experimental: To distinguish between adsorption and penetration of viral particles the inventors made use of dual fluorescent HCMV TB40-BACKL7-UL32EGFP-UL100mCherry (Sampaio 2013). HFFs and HECs were seeded at a density of 40,000 cells per well on gelatin-coated MIDI plates. Overnight produced cell-free infectious supernatant of the fluorescent virus was pre-incubated with PDGFR-Fcs for 2 h at 37° C. Before addition of the mixture the cells were pre-incubated with MEM for 30 min. […] After fixation with acetone, the EGFP signal of pUL32-EGFP was enhanced using mouse-anti-GFP (clone 3E6, Invitrogen) and Alexa488-anti-mouse (Life Technologies). DAPI (4′,6-diamidino-2-phenylindole) was added to mark the cell nuclei. The number of mCherry and EGFP positive particles which are enveloped was compared to the number of particles which were only green per cell. These […] particles have lost their UL100mCherry containing envelope, presumably by fusion with cellular membranes.
To further investigate, which of the initial steps of infection are blocked, the inventors performed a series of experiments that allowed discriminating between adsorption and penetration. They used the dual fluorescent virus TB40-BACKL7-UL32EGFP-UL100mCherry (Sampaio 2013) as it allows to discriminate between enveloped (EGFP-positive and mCherry positive) and non-enveloped particles (only EGFP positive). […]

HCMV particles = assay: Binding of chimeric receptors (Fc-fusion proteins) to HCMV particles; design: species or system Human cytomegalovirus
Experimental: (§1) To assess the binding of Fc-Proteins to virus particles, HFFs were seeded at a density of 40,000 cells per well on IBIDI plates 1 day prior to infection. Virus preparations were pre-incubated with Fc-fusion proteins at a final concentration of 500 ng/ml for 2 h at 37° C. The virus/Fc-protein mixtures were incubated with the cells for 1.5 h on ice. Before fixation with 80% acetone, the cells were washed once with MEM. For staining of viral particles mouse hybridoma recognizing the abundant viral protein pp150 (generously provided by W. Britt, Sanchez 2000) used.
The inventors tested this by staining of adsorbed virus particles with the Fc-fusion proteins. […] Virus particles were stained for the capsid protein pp150 and bound Fc-fusion proteins.
The inventors analyzed the mode of inhibition by PDGFR-alpha-Fc. For this, the binding of different concentrations of the fusion protein was quantified by assessing the particle intensities after staining with anti-human antibody (FIG. 5). […] (FIGS. 4 and 5).

[2] = system: HCMV wild type or UL74stop particles; assay: Staining of wild type and UL74stop (gO deficient) particles with Fc-fusion protein; type: binding, Human cytomegalovirus; conditions: 500 ng/ml, 2 h
Experimental: as §1, with “used. As a secondary antibody goat anti-mouse Cy3 (Jackson Immuno Research was used. Visualization of bound Fc-proteins was achieved by applying anti-human Alexa488 (Invitrogen). For better orientation, cell nuclei were stained with DAPI. For quantification of PDGFR-alpha-Fc binding to HCMV particles, the grey values of 100 particles per condition were quantified using AxioVision Software (Zeiss).” for “used.”
To test whether pUL74 is an interaction partner of PDGFR-alpha-Fc, the inventors tested whether gO deficient particles can be stained with the soluble molecule similarly to wild type particles (shown in FIG. 8). HCMV wild type or UL74stop particles were incubated with 500 ng/ml PDGFR-alpha-Fc or PDGFRβ-Fc for 2 h before attachment to the cells ice. […]

PDGFR-alpha-Fc: recombinant Fc-fusion protein of the PDGFR-alpha extracellular domain, obtained from R&D (6765-PR-050)
EC50 of binding to and neutralizing cell-free HCMV particles (HCMV): 0.01 to 0.05 µg/mL | attachment to and fusion with cells of treated particles (HCMV): reduced attachment to and reduced fusion with cells | effect when applied post-attachment (HCMV): effective | inhibition of infection of HFFs at 200 ng/ml (HCMV strain TB40/E; 200 ng/ml): complete abrogation of infection | inhibitory potential of Fc chimeras on HCMV infection of HFFs (HCMV strain TB40/E; increasing concentrations, pre-incubated 2 h): blocked infection in a dose dependent fashion | EC50 of inhibition of infection of HFFs (HCMV strain TB40/E; virus pre-incubated 2 h): 0.01 to 0.02 µg/mL | reduction of adsorption on HFFs [1]: 50% | reduction of penetration of HFFs (less efficient) [1]: 75% | EC50 of binding to HCMV particles (HCMV particles; particle intensities after anti-human antibody staining): 0.108 µg/mL | binding of Fc-fusion protein to virus particles (anti-human antibody staining) (HCMV particles; particles pre-incubated with Fc-fusion protein, attached to cells on ice): binds to the virus | staining of wild type vs UL74stop particles with anti-human Fc antibody [2]: Only virus particles containing the glycoprotein pUL74 were stained
